Experimental data: US4202891A, “15-Oxygenated sterol compounds and the use of such compounds to inhibit the biosynthesis of sterols” (priority 1977, dated 1980)
Like-named read-outs stand apart in the source and are kept apart here.

What was measured:
[1] = test system: sterol biosynthesis in L cells; assay: Inhibition of sterol synthesis from [1-14C]acetate in L cell cultures; assay type: cell-based; conditions: Mus musculus, read-out: Concentrations Required for 50% Inhibition of Sterol Synthesis
Experimental: (§1) The effect of various 15-oxygenated sterols on sterol biosynthesis in L cells and in primary cultures of mouse liver cells was tested essentially under conditions described in detail previously [A. A. Kandutsch and H. W. Chen, J. Biol. Chem., Vol. 248, pp. 8408-8417 (1973) and A. A. Kandutsch and H. W. Chen, J. Biol. Chem., Vol. 249, pp. 6057-6061 (1974`)].
(§2) The primary liver cell cultures were prepared from 16-day-old (C57BL/6J fetuses and grown in chemically defined medium (serum-free) as described in the above cited publications. The L cells, a subline of NCTC clone 929 mouse fibroblasts, were grown in chemically defined medium (serum-free) as described in the publications. These L cells are transformed fibroblasts which are regarded as malignant since they will grow as tumors if injected into the mouse strain from which they were initially obtained.
(§3) The preparation of steroid-containing media, procedures for assays of the conversion of [1-^14 C]acetate into digitonin-precipitable sterols, fatty acids, and CO2 and methods for the measurement of DNA, protein, and HMG-CoA reductase were as described in the published articles. L cell cultures were preincubated with the 15-oxygenated sterols and their derivatives for 4 hours, then [1-^14 C]acetate was added at a concentration of 4 μmoles per ml (4 μCi per ml); or the L cell cultures were incubated for 5 hours with the 15-oxygenated sterols before they were harvested for determination of microsomal HMG-CoA reductase activity.
(§4) The test compounds were tested over a range of at least 4 concentrations and the assay was repeated until the concentration of test compound required to produce 50% inhibition was located on the steeply declining portion of an activity vs. concentration plot. To diminish any possible effects of generalized differences in cellular metabolism, the rates of sterol synthesis from [1-^14 C]acetate were calculated as the ratio of [^14 C]sterols to [^14 C]fatty acids as described in the two cited articles by Kandutsch and Chen.

[2] = test system: sterol biosynthesis in primary cultures of mouse liver cells; assay: Inhibition of sterol synthesis from [1-14C]acetate in primary cultures of liver cells; assay type: cell-based; conditions: read-out: Concentrations Required for 50% Inhibition of Sterol Synthesis
Experimental: as §1, §2, §3
(§5) Conditions for incubating the 15-oxygenated sterols or their derivatives with liver cell cultures were similar to those described for L cell cultures except that the cultures were incubated with the test compounds for 12 hours before labeled acetate was added or before they were harvested for enzyme assay.
as §4

HMG-CoA reductase [3] = assay: Reduction of the activity of HMG-CoA reductase in L cell cultures; assay type: cell-based, mouse; conditions: read-out: Concentrations Required for 50% Reduction of the Activity of HMG-CoA Reductase
Experimental: as §2, §3
(§6) A number of the 15-oxygenated sterols have also been tested with respect to their effects on the activity and/or levels of the enzyme HMG-CoA reductase (3-hydroxy-3-methylglutaryl coenzyme A reductase) in the L cells and in the liver cells. As noted previously, this enzyme catalyzes the reduction of 3-hydroxy-3-methylglutaryl coenzyme A to yield mevalonic acid, an essential intermediate in the biosynthesis of sterols and of a number of other essential compounds in cells.
(§7) Using the technique described by Kandutsch and Chen in the article cited in the previous example, the concentrations of various 15-oxygenated sterols required to reduce the levels of activity of HMG-CoA reductase by 50% was determined in the cells of the L cells in culture and of the primary cultures of liver cells.

HMG-CoA reductase [4] = assay: Reduction of the activity of HMG-CoA reductase in primary cultures of liver cells; assay type: cell-based, mouse; conditions: read-out: Concentrations Required for 50% Reduction of the Activity of HMG-CoA Reductase
Experimental: as §2, §3, §5, §6, §7

[5] = test system: sterol biosynthesis in primary cultures of mouse liver cells; conditions: primary cultures of liver cells, cited from earlier work; for IC50: as reported by Kandutsch and Chen, read-out: Concentrations Required for 50% Inhibition of Sterol Synthesis
[6] = test system: sterol biosynthesis in L cells; conditions: L cell cultures; as reported by Kandutsch and Chen; read-out: Concentrations Required for 50% Inhibition of Sterol Synthesis; cited from earlier work
serum cholesterol = assay: Effect on serum cholesterol levels in rats, daily subcutaneous injection (Examples 41, 42); assay type: in vivo, rat (male, Sprague-Dawley); conditions: for Serum Cholesterol (Mean ± S.E.M.): 5 mg s.c. once a day in triolein; for % Reduction of serum cholesterol (Mean ± S.E.M.): from initial levels in same rats
Experimental: Male rats of the Sprague-Dawley strain were fed Purina rat chow ad libidum. The rats were maintained on a light (7 A.M.-6 P.M.) -dark (6 P.M.-7 A.M.) cycle throughout the study and for a period of at least 4 days prior to the initiation of the study.
(§8) 3β-Hexadecanoyloxy-5α-cholest-8(14)-en-15-one (5 mg; dissolved in 0.25 ml of triolein), hereafter referred to as the "palmitate ester", or 3β-hemisuccinoyloxy-5α-cholest-8(14)-en-15-one (5 mg; suspended in 0.25 ml of triolein through the use of a tight-fitting all-glass homogenizer), hereafter referred to as the "hemisuccinate ester", were administered subcutaneously once a day at about 12 P.M. to each of eight and six rats, respectively. Control animals (8) received daily injections of triolein (0.25 ml).
Blood samples were taken from the rats periodically and the serum cholesterol concentrations measured, in duplicate, by the method of Abell et al., J. Biol. Chem., Vol. 195, pp. 357-366 ([…]).
Following generally the procedure described in Example 41, 3β-Ethoxy-14α-ethyl-5α-cholest-7-en-15-one (5 mg) in triolein (0.25 ml) was administered subcutaneously once a day to each of eight rats. Control animals (8) received daily injections of triolein (0.25 ml).
Similarly, 5α-cholest-8(14)-en-3β-ol-15-one (2mg) in (0.2 ml) olive oil or 5.0 mg in 0.5 ml of olive oil) was administered subcutaneously once a day to each of a group of rats. The 2 mg dose was administered to 12 rats, while a like number of rats received daily injections of 0.2 ml olive oil. 5 mg doses were administered to each of 6 rats, while 6 control animals received daily injections of 0.5 ml olive oil. The rats used in this study initially weighed between 110 and 190 grams.

[7] = assay type: in vivo, rat (male, Sprague-Dawley)
Experimental: as §8
The average percentage weight gain over the total experimental period in the palmitate, hemisuccinate, and triolein groups were (mean±S.E.M.) 40.5±4.6, 40.7±1.6, and 43.6±3.3, respectively.

liver = assay type: in vivo, rat (male, Sprague-Dawley); conditions: 5 mg s.c. once a day
Experimental: as §8
The mean values of the liver weights of the triolein-treated rats (9.6 g±0.08, S.E.M.). S.E. differed from those of the palmitate ester-treated rats (11.4 g±0.5, S.E.M.). Similarly, the mean value of the liver weights, when expressed as a percentage of the total body weight, of the triolein-treated rats (4.09%±0.08, S.E.M.) differed from the mean value for the palmitate ester-treated rats (4.53%±0.09, S.E.M.).

| Compound | IC50 [1] | IC50 [2] | IC50 (HMG-CoA reductase [3]) | IC50 (HMG-CoA reductase [4]) | also measured |
| --- | --- | --- | --- | --- | --- |
| CC[C@@]12C(=O)C[C@H]([C@H](C)CCCC(C)C)[C@@]1(C)CC[C@H]1C2=CC[C@H]2C[C@@H](O)CC[C@@]21C [14α-Ethyl-5α-cholest-7-en-3β-ol-15-one, 14α-ethyl-5α-cholest-7-en-3β-ol-15-one] | 0.3 µM | 2.1 µM | 1.9 µM | 2.1 µM | – |
| CC(C)CCC[C@@H](C)[C@H]1CC[C@H]2[C@@H]3CC=C4C[C@@H](O)CC[C@]4(C)[C@H]3CC[C@]12C [Cholesterol] | – | – | – | – | IC50 [5]: > 5200 µM; activity in the liver cell culture system (in words) [5]: inactive |
| CO[C@H]1CC[C@@]2(C)[C@@H](CC=C3[C@@H]2CC[C@]2(C)[C@@H]([C@H](C)CCCC(C)C)C[C@@H](O)[C@@]32C)C1 [3β-methoxy-14α-methyl-5α-cholest-7-en-15β-ol] | 1.4 µM | 3.5 µM | 3.7 µM | 3.5 µM | – |
| CC(C)CCC[C@@H](C)[C@H]1C[C@H](O)[C@@H]2C3=CC[C@H]4C[C@@H](O)CC[C@]4(C)[C@H]3CC[C@]12C [5α,14β-Cholest-7-en-3β,15α-diol, 5α,14β-cholest-7-en-3β,15α-diol] | 3.2 µM | 7.5 µM | 6.7 µM | 12.5 µM | – |
| CC(C)CCC[C@@H](C)[C@H]1C[C@H](O)[C@@]2(C)C3=CC[C@H]4C[C@@H](O)CC[C@]4(C)[C@H]3CC[C@]12C [14α-Methyl-5α-cholest-7-en-3β,15α-diol] | 0.3 µM | 1.8 µM | 0.3 µM | 2 µM | – |
| CC(C)CCC[C@@H](C)[C@H]1C[C@@H](O)[C@@H]2C3=CC[C@H]4C[C@@H](O)CC[C@]4(C)[C@H]3CC[C@]12C [5α,14β-Cholest-7-en-3β,15β-diol, 5α,14β-cholest-7-en-3β,15β-diol] | 1 µM | 2.5 µM | 4.5 µM | 6 µM | – |
| CC(C)CCC[C@@H](C)[C@H]1C[C@@H](O)C2=C3CC[C@H]4C[C@@H](O)CC[C@]4(C)[C@H]3CC[C@@]21C [5α-Cholest-8(14)-en-3β,15β-diol] | 1.8 µM | 10.3 µM | 2.5 µM | 16.1 µM | – |
| CO[C@H]1CC[C@@]2(C)[C@@H](CC=C3[C@@H]2CC[C@]2(C)[C@@H]([C@H](C)CCCC(C)C)C[C@H](O)[C@@]32C)C1 [3β-methoxy-14α-methyl-5α-cholest-7-en-15α-ol] | 0.3 µM | 1.9 µM | 3 µM | 1.6 µM | – |
| CC(C)CCC(=O)[C@@H](C)[C@H]1CC[C@H]2[C@@H]3CC=C4C[C@@H](O)CC[C@]4(C)[C@H]3CC[C@]12C [Cholest-5-en-3β-ol-22-one] | – | – | – | – | IC50 [6]: 1.7 µM; IC50 [5]: 37 µM |
| CC(C)CCC[C@@H](C)[C@H]1C[C@@H](O)[C@@]2(C)C3=CC[C@H]4C[C@@H](O)CC[C@]4(C)[C@H]3CC[C@]12C [14α-Methyl-5α-cholest-7-en-3β,15β-diol] | 0.5 µM | – | 1.2 µM | 4.3 µM | – |
| CC(C)CCC[C@@H](C)[C@H]1CC(O)C2=C3C(O)C[C@H]4C[C@@H](O)CC[C@]4(C)[C@H]3CC[C@@]21C (stereo partly drawn) [5α-cholest-8(14)-en-3β,7ε,15ε-triol] | – | – | 1.9 µM | 18 µM | IC50 ([1]; L cell cultures): 5 µM; IC50 ([2]; primary cultures of liver cells): 4.8 µM |
| CCCCCCCCCCCCCCCC(=O)O[C@H]1CC[C@@]2(C)[C@@H](CCC3=C4C(=O)C[C@H]([C@H](C)CCCC(C)C)[C@@]4(C)CC[C@@H]32)C1 [3β-hexadecanoyloxy-5α-cholest-8(14)-en-15-one] | – | – | – | – | Serum Cholesterol (Mean ± S.E.M.) (serum cholesterol; day 0 (initial)): 91.6 ± 2.6 mg per 100 ml; Serum Cholesterol (Mean ± S.E.M.) (serum cholesterol; day 3): 74.9 ± 3.9 mg per 100 ml; Serum Cholesterol (Mean ± S.E.M.) (serum cholesterol; day 6): 75.8 ± 5.0 mg per 100 ml; Serum Cholesterol (Mean ± S.E.M.) (serum cholesterol; day 9): 77.9 ± 5.9 mg per 100 ml; Serum Cholesterol (Mean ± S.E.M.) (serum cholesterol; day 12): 61.4 ± 3.9 mg per 100 ml; decrease in serum cholesterol levels (in words) (serum cholesterol; 5 mg s.c. once a day, after 3, 6, 9, 12 days vs same rats before, after 12 days vs triolein): significant decreases in serum cholesterol levels; % Reduction of serum cholesterol (Mean ± S.E.M.) (serum cholesterol; 5 mg s.c. once a day, day 3): 18.2 ± 3.3%; % Reduction of serum cholesterol (Mean ± S.E.M.) (serum cholesterol; 5 mg s.c. once a day, day 6): 15.7 ± 4.4%; % Reduction of serum cholesterol (Mean ± S.E.M.) (serum cholesterol; 5 mg s.c. once a day, day 9): 14.5 ± 2.9%; % Reduction of serum cholesterol (Mean ± S.E.M.) (serum cholesterol; 5 mg s.c. once a day, day 12): 33.2 ± 2.7%; average percentage weight gain (mean±S.E.M.) ([7]; 5 mg s.c. once a day, total experimental period): 40.5±4.6%; differences in growth versus vehicle-treated rats (in words) ([7]; daily s.c.): no significant differences in the growth; difference of liver weights from triolein-treated rats (in words) (liver): differed; liver weight (mean, S.E.M.) (liver): 11.4 g; liver weight as percentage of total body weight (mean, S.E.M.) (liver): 4.53%; IC50 ([1]; L cell cultures): > 16 µM |
| CC(C)CCC(O)[C@@H](C)[C@H]1CC[C@H]2[C@@H]3CC=C4C[C@@H](O)CC[C@]4(C)[C@H]3CC[C@]12C (stereo partly drawn) [Cholest-5-en-3β,22α-diol] | – | – | – | – | IC50 [6]: 3.7 µM; IC50 [5]: 6 µM |
| CC(C)CCC[C@@H](C)[C@H]1CC(=O)[C@@]2(C)C3=CC[C@H]4C[C@@H](O)CC[C@]4(C)[C@H]3CC[C@]12C [14α-Methyl-5α-cholest-7-en-3β-ol-15-one, 14α-methyl-5α-cholest-7-en-3β-ol-15-one] | 0.3 µM | 4.5 µM | 0.3 µM | 2.8 µM | – |
